Measurements from US8263749B2, “Imatinib immunoassay” (Saladax Biomedical Inc., priority 2009, dated 2012).

Tests used:
Type in all cases: binding, mouse
[1] = system: polyclonal antibodies to imatinib (Example 8a); assay: Indirect competitive microtiter plate immunoassay (ELISA), cross-reactivity with polyclonal antibodies to imatinib; details: for Cross-reactivity of competitive immunoassay: ratio of IC50 imatinib to IC50 analyte
[2] = system: monoclonal antibody 9F2-4-29 to imatinib; assay: Indirect competitive microtiter plate immunoassay (ELISA), cross-reactivity with monoclonal antibody 9F2-4-29; details: monoclonal antibody number 9F2-4-29; ratio of IC50 imatinib to IC50 analyte
Experimental: (§1) Mice from example 8a that were immunized with imatinib-KLH prepared in 6b were used to produce monoclonal antibodies. For monoclonal antibodies starting three days before the fusion, the mice were injected i.p. with 400 μg (3 days before fusion), 200 μg (2 days before fusion), and 200 μg (1 day before fusion) of imatinib-KLH in PSS/DMSO prepared in example 6b. Spleen cells were isolated from the selected mice and fused with 2×10^7 SP2/0 cells with 50% polyethylene glycol 1500 according to the method of Coligan, J. E. et al., eds., Current Protocols in Immunology, 2.5.1-2.5.8, (1992), Wiley & Sons, NY. The fused cells were plated on ten 96-well plates in DMEM/F12 supplemented with 20% FetalClone I, 2% L-glutamine (100 mM) and 2% 50× HAT. Two to three weeks later, the hybridoma supernatant was assayed for the presence of anti-imatinib antibodies by ELISA (as in example fob). […] Clones positive by ELISA were subcloned twice by limiting dilution according to the method disclosed in Coligan, J. E. et al., eds., Current Protocols in Immunology, 2.5.8-2.5.17, (1992), Wiley & Sons, NY. […] These monoclonal antibodies were tested for imatinib binding and cross-reactivity to a major imatinib metabolite, N-desmethyl imatinib, by indirect competitive microtiter plate assay as described in example 11. […]

[3] = system: monoclonal antibody 9F2-4-31 to imatinib; assay: Indirect competitive microtiter plate immunoassay (ELISA), cross-reactivity with monoclonal antibody 9F2-4-31; details: monoclonal antibody number 9F2-4-31; ratio of IC50 imatinib to IC50 analyte
Experimental: as §1

[4] = system: selected monoclonal antibodies to imatinib (Example 8b); assay: Indirect competitive microtiter plate immunoassay (ELISA), cross-reactivity with selected monoclonal antibodies; details: measured with selected monoclonal antibodies
Experimental: Mice from example 8a that were immunized with imatinib-KLH prepared in 6b were used to produce monoclonal antibodies. For monoclonal antibodies starting three days before the fusion, the mice were injected i.p. with 400 μg (3 days before fusion), 200 μg (2 days before fusion), and 200 μg (1 day before fusion) of imatinib-KLH in PSS/DMSO prepared in example 6b. Spleen cells were isolated from the selected mice and fused with 2×10^7 SP2/0 cells with 50% polyethylene glycol 1500 according to the method of Coligan, J. E. et al., eds., Current Protocols in Immunology, 2.5.1-2.5.8, (1992), Wiley & Sons, NY. The fused cells were plated on ten 96-well plates in DMEM/F12 supplemented with 20% FetalClone I, 2% L-glutamine (100 mM) and 2% 50× HAT. Two to three weeks later, the hybridoma supernatant was assayed for the presence of anti-imatinib antibodies by ELISA (as in example fob). Cells from the wells that gave positive ELISA results (example lob) were expanded to 24 well plates. Clones positive by ELISA were subcloned twice by limiting dilution according to the method disclosed in Coligan, J. E. et al., eds., Current Protocols in Immunology, 2.5.8-2.5.17, (1992), Wiley & Sons, NY. Hybridoma culture supernatants containing monoclonal antibody from selected subclones were confirmed for imatinib binding by a competitive ELISA (example 11). […]

antibodies to imatinib = assay: Immunoassay reactivity of the antibodies produced in accordance with the invention (polyclonal and monoclonal); details: summary of Tables I and II
Experimental: Initial doses, bleedings and booster shots can be given according to accepted protocols for eliciting immune responses in animals, e.g., in a preferred embodiment mice received an initial dose of 100 ug immunogen/mouse, i.p. and two or more subsequent booster shots of between 50 and 100 ug immunogen/mouse over a six month period.
The ELISA method for determining IC50 values and cross-reactivity was performed with the microtiter plates that were sensitized with imatinib-BSA described in Examples 9. Analytes—imatinib and N-desmethyl imatinib were diluted in diH2O over a concentration range of 10 to 1,000,000 ng/mL. […] The assays were all performed by diluting the concentration of the antibodies in each of the wells to the titer determined in Example 10a. […] Following the incubation for color development, 50 of stop solution (1.5% sodium fluoride in di H2O) was added to each well to stop the color development and after 20 seconds of shaking the absorbance was determined at 650 nm (Molecular Devices Plate Reader). The amount of antibody in a well was proportional to the absorbance measured and inversely proportional to the amount of imatinib in the sample. The IC50's of imatinib and N-desmethyl imatinib were determined by constructing dose-response curves with the absorbance in the wells plotted versus analyte concentration in the wells. […]

[5] = polyclonal Bleed # 1, immunogen of example 6b
[6] = polyclonal Bleed # 2, immunogen of example 6b
[7] = polyclonal Bleed # 3, immunogen of example 6b
[8] = polyclonal Bleed # 4, immunogen of example 6a
[9] = polyclonal Bleed # 5, immunogen of example 6a

Structure (SMILES)	Cross-reactivity of competitive immunoassay [1, 5]	Cross-reactivity of competitive immunoassay [1, 6]	Cross-reactivity of competitive immunoassay [1, 7]	Cross-reactivity of competitive immunoassay [1, 8]	Cross-reactivity of competitive immunoassay [1, 9]	Cross-reactivity of competitive immunoassay [2]	Cross-reactivity of competitive immunoassay [3]	percent cross-reactivities relative to imatinib ([1]; measured with this pool of (polyclonal) antibodies)	percent cross-reactivities relative to imatinib [4]	reactivity with the antibodies (antibodies to imatinib)
Cc1ccc(NC(=O)c2ccc(CN3CCN(C)CC3)cc2)cc1Nc1nccc(-c2cccnc2)n1 [Imatinib]	100%	100%	100%	100%	100%	100%	100%			
Cc1ccc(NC(=O)c2ccc(CN3CCNCC3)cc2)cc1Nc1nccc(-c2cccnc2)n1 [N-desmethyl imatinib]	1%	5%	2%	7%	1%	2.7%	3.2%	less than or equal to 7%	less than 4%	substantially non-reactive
